Molecular target: T1, Human vitronectin receptor αVβ3 (Homo sapiens, UniProt P05106+P06756)
T1 construct: Human vitronectin receptors αVβ3 and αVβ5 were purified from human placenta; from tissue; host or cells: human placenta
Assay: Vitronectin adhesion assay (solid phase receptor assay)
Assay type: binding
Conditions: positive control included on each plate; read-out: IC50 αVβ3 antagonist (positive control)
Procedure: Human vitronectin receptors αVβ3 and αVβ5 were purified from human placenta as previously described [Pytela et al., Methods in Enzymology, 144:475-489 (1987)]. Human vitronectin was purified from fresh frozen plasma as previously described [Yatohgo et al., Cell Structure and Function, 13:281-292 (1988)]. Biotinylated human vitronectin was prepared by coupling NHS-biotin from Pierce Chemical Company (Rockford, Ill.) to purified vitronectin as previously described [Charo et al., J. Biol. Chem., 266(3):1415-1421 (1991)]. Assay buffer, OPD substrate tablets, and RIA grade BSA were obtained from Sigma (St. Louis, Mo.). Anti-biotin antibody was obtained from Sigma (St. Louis, Mo.). Nalge Nunc-Immuno microtiter plates were obtained from Nalge Company (Rochester, N.Y.).
This assay was essentially the same as previously reported [Niiya et al., Blood, 70:475-483 (1987)]. […] The plate was read with a microtiter plate reader at a wavelength of 450 nm and when the maximum-binding control wells reached an absorbance of about 1.0, the final A450 were recorded for analysis. The data were analyzed using a macro written for use with the EXCEL spreadsheet program. The mean, standard deviation, and % CV were determined for duplicate concentrations. […]

T1 sequence (P06756 31-889 limits assumed): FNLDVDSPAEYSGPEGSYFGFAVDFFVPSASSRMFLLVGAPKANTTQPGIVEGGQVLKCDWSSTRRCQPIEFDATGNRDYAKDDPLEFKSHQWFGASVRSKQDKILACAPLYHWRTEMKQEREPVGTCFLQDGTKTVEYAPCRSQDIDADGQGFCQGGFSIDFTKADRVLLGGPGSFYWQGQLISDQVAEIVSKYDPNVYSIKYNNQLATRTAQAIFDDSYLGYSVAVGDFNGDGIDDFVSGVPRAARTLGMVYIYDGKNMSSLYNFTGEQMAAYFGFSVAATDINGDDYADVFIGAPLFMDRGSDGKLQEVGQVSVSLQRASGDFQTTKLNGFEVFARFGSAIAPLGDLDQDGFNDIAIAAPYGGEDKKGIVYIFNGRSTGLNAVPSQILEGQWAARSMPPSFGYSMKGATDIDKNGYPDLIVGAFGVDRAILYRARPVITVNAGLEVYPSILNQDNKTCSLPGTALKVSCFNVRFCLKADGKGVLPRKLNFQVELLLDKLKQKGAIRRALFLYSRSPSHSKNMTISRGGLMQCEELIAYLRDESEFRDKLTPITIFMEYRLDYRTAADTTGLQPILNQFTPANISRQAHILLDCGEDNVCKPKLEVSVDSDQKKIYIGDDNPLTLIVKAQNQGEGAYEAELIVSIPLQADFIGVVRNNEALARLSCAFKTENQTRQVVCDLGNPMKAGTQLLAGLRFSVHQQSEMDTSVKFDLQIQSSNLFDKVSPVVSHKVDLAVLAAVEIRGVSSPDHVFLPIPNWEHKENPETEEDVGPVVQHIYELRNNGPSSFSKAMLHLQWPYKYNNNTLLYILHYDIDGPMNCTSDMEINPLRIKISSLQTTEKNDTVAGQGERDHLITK
T1 sequence (P06756 891-1048 partner limits assumed): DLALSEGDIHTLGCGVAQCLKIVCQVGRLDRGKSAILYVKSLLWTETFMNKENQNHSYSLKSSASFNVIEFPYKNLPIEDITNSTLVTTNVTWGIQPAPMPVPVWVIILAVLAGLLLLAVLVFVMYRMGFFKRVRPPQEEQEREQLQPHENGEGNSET
T1 sequence (P05106 27-788): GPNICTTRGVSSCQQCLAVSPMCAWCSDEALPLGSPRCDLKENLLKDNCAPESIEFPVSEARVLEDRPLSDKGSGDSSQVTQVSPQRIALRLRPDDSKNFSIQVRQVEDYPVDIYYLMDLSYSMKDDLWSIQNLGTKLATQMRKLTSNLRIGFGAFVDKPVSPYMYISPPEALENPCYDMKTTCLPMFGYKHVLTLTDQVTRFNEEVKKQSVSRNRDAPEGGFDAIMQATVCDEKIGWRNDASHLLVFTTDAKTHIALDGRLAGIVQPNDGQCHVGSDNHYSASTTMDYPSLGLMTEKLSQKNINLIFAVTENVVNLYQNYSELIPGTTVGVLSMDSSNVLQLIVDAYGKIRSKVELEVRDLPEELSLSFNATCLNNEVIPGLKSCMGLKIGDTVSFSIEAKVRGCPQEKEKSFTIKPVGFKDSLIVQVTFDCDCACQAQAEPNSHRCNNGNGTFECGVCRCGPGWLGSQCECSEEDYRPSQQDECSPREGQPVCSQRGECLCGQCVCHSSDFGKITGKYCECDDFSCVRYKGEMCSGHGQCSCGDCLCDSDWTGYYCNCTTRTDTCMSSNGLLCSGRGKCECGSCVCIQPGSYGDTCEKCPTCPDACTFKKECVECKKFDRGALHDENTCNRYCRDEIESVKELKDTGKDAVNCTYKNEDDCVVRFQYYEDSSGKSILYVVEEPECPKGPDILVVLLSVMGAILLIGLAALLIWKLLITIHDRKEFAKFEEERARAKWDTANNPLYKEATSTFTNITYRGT

β-[[2-[[5-[(aminoiminomethyl)amino]-1-oxopentyl]amino]-1-oxoethyl]amino]-3-pyridinepropanoic acid
IC50: 3 to 10 nM

Reference: patent publication US6933304B2, “Heteroarylalkanoic acids as integrin receptor antagonists” (Pharmacia Corporation, priority 2000, dated 2005)
